This passage reports IC50 results from patent US9771372B2, “Compounds useful as S100-inhibitors” (Active Biotech AB, priority 2014, dated 2017).

In the test the target is T1, interaction between biotinylated human S100A9 and human RAGE-Fc (Homo sapiens, UniProt P06702).
T1 construct: made in house; host or cells: E. coli BL21(DE3)/pET1120 (pLR757)
T1 sequence (P06702 1-114): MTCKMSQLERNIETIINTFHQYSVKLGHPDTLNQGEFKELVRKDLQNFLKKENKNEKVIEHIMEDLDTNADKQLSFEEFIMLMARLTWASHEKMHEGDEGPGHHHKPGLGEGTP
The test is described as follows: AlphaScreen inhibition assay, Biot-hS100A9:hRAGE-Fc (S100A9-RAGE inhibition assay). In kind it is binding. The conditions noted are these: biot-hS100A9 and rhRAGE-Fc, Ca2+ and Zn2+ in buffer. An outline of the steps: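 Biotinylated human S100A9, in HBS-P with CaCl2 and ZnCl2, preincubated 1 h at room temperature in the dark with compound (final DMSO ≤1.25%), then combined with rhRAGE-Fc on protein A Acceptor beads plus streptavidin Donor beads (20 μg/mL each). Protein levels batch-dependent; percent inhibition from AlphaScreen signal vs DMSO-only control.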

The term IC50 denotes the midpoint of a concentration-inhibition curve. For the compound `O=C(CN1CCOCC1)NC1(C(F)(F)F)C(=O)Nc2nc3cc(Cl)c(Cl)cc3n21` (stereo not drawn) [Example 60, N-[10,11-dichloro-4-oxo-3-(trifluoromethyl)-2,5,7-triazatricyclo[6.4.0.0^2,6]dodeca-1(12),6,8,10-tetraen-3-yl]-2-(morpholin-4-yl)acetamide], the IC50 was 4000 nM.

Consider `O=C(CCC1CCCC1)NC1(C(F)(F)F)C(=O)Nc2nc3ccccc3n21` (stereo not drawn) [Example 9, 3-cyclopentyl-N-[4-oxo-3-(trifluoromethyl)-2,5,7-triazatricyclo[6.4.0.0^2,6]dodeca-1(8),6,9,11-tetraen-3-yl]propanamide], for which the IC50 is 10200 nM. In the case of `O=C(NC1(C(F)(F)F)C(=O)Nc2nc3cc(Cl)c(Cl)cc3n21)c1cccc(Cl)n1` (stereo not drawn) [Example 62, 6-chloro-N-[10,11-dichloro-4-oxo-3-(trifluoromethyl)-2,5,7-triazatricyclo[6.4.0.0^2,6]-dodeca-1(12),6,8,10-tetraen-3-yl]pyridine-2-carboxamide] it was 1100 nM; in that of `O=C(NC1(C(F)(F)F)C(=O)Nc2nc3cc(Cl)c(Cl)cc3n21)c1cccc(CO)n1` (stereo not drawn) [Example 97, N-[10,11-dichloro-4-oxo-3-(trifluoromethyl)-2,5,7-triazatricyclo[6.4.0.0^2,6]dodeca-1(8),6,9,11-tetraen-3-yl]-6-(hydroxymethyl)pyridine-2-carboxamide], 190 nM. Take `O=C(CCC1CCCC1)NC1(C(F)(F)F)C(=O)Nc2nc3c(-c4ccccc4O)cccc3n21` (stereo not drawn) [Example 198, 3-cyclopentyl-N-[9-(2-hydroxyphenyl)-4-oxo-3-(trifluoromethyl)-2,5,7-triazatricyclo[6.4.0.0^2,6]dodeca-1(12),6,8,10-tetraen-3-yl]propanamide]: the IC50 turned out to be 1970 nM.

As for `COc1ccc(-c2cccc3c2nc2n3C(NC(=O)CCC3CCCC3)(C(F)(F)F)C(=O)N2)cc1` (single isomer, unassigned) [Example 230b, 3-cyclopentyl-N-[9-(4-methoxyphenyl)-4-oxo-3-(trifluoromethyl)-2,5,7-triazatricyclo[6.4.0.0^2,6]dodeca-1(12),6,8,10-tetraen-3-yl]propanamide], the IC50 is 2880 nM.

For `Cc1cccc2c1nc1n2C(NC(=O)CCC2CCCC2)(C(F)(F)F)C(=O)N1` (stereo not drawn) [Example 81, 3-cyclopentyl-N-[9-methyl-4-oxo-3-(trifluoromethyl)-2,5,7-triazatricyclo[6.4.0.0^2,6]dodeca-1(12),6,8,10-tetraen-3-yl]propanamide], the IC50 came to 5600 nM. The value for `COCCNc1cccc(C(=O)NC2(C(F)(F)F)C(=O)Nc3nc4cc(C)c(C)cc4n32)n1` (single isomer, unassigned) [Example 220a, N-[10,11-dimethyl-4-oxo-3-(trifluoromethyl)-2,5,7-triazatricyclo[6.4.0.0^2,6]dodeca-1(12),6,8,10-tetraen-3-yl]-6-[(2-methoxyethyl)amino]pyridine-2-carboxamide] was 1930 nM; that for `O=C(CCC1CCCC1)NC1(C(F)(F)F)C(=O)Nc2nc3c(-c4ccc(Cl)c(Cl)c4)cccc3n21` (stereo not drawn) [Example 203, 3-cyclopentyl-N-[9-(3,4-dichlorophenyl)-4-oxo-3-(trifluoromethyl)-2,5,7-triazatricyclo[6.4.0.0^2,6]dodeca-1(12),6,8,10-tetraen-3-yl]propanamide] was 1340 nM; that for `O=C(NC1(C(F)(F)F)C(=O)Nc2nc3cc(Cl)c(Cl)cc3n21)c1cccc(NCCO)n1` (stereo not drawn) [Example 91, N-[10,11-dichloro-4-oxo-3-(trifluoromethyl)-2,5,7-triazatricyclo[6.4.0.0^2,6]dodeca-1(8),6,9,11-tetraen-3-yl]-6-[(2-hydroxyethyl)amino]pyridine-2-carboxamide] was 260 nM. In the case of `Cc1cc2nc3n(c2cc1C)C(NC(=O)c1ccc(OCC(F)(F)F)nc1)(C(F)(F)F)C(=O)N3` (stereo not drawn) [Example 21, N-[10,11-dimethyl-4-oxo-3-(trifluoromethyl)-2,5,7-triazatricyclo[6.4.0.0^2,6]dodeca-1(8),6,9,11-tetraen-3-yl]-6-(2,2,2-trifluoroethoxy)pyridine-3-carboxamide] it was 4000 nM; in that of `O=C(NC1(C(F)(F)F)C(=O)Nc2nc3cc(Cl)c(Cl)cc3n21)c1cc(Cl)cc(Cl)c1` (stereo not drawn) [Example 57, 3,5-dichloro-N-[10,11-dichloro-4-oxo-3-(trifluoromethyl)-2,5,7-triazatricyclo-[6.4.0.0^2,6]dodeca-1(12),6,8,10-tetraen-3-yl]benzamide], 2800 nM. The value for `COCCN(C)c1cccc(C(=O)NC2(C(F)(F)F)C(=O)Nc3nc4cc(Cl)c(Cl)cc4n32)n1` (stereo not drawn) [Example 94, N-[10,11-dichloro-4-oxo-3-(trifluoromethyl)-2,5,7-triazatricyclo[6.4.0.0^2,6]dodeca-1(8),6,9,11-tetraen-3-yl]-6-[(2-methoxyethyl)(methyl)amino]pyridine-2-carboxamide] was 1590 nM. As for `O=C(NC1(C(F)(F)F)C(=O)Nc2nc3cc(Cl)c(Cl)cc3n21)C1CN(c2ccccn2)C1` (stereo not drawn) [Example 52, N-[10,11-dichloro-4-oxo-3-(trifluoromethyl)-2,5,7-triazatricyclo[6.4.0.0^2,6]dodeca-1(12),6,8,10-tetraen-3-yl]-1-(pyridin-2-yl)azetidine-3-carboxamide], the IC50 was 700 nM. With `Cc1cc2nc3n(c2cc1C)C(NC(=O)[C@@H](C)Oc1cccc(Cl)c1)(C(F)(F)F)C(=O)N3` (single isomer, unassigned) [Example 212a], the IC50 worked out at 610 nM. In the case of `CCNc1cccc(C(=O)NC2(C(F)(F)F)C(=O)Nc3nc4cc(C)c(C)cc4n32)n1` (stereo not drawn) [Example 67, N-[10,11-dimethyl-4-oxo-3-(trifluoromethyl)-2,5,7-triazatricyclo[6.4.0.0^2,6]dodeca-1(12),6,8,10-tetraen-3-yl]-6-(ethylamino)pyridine-2-carboxamide] it was 2000 nM; in that of `O=C(NC1(C(F)(F)F)C(=O)Nc2nc3cc(Cl)c(Cl)cc3n21)C1CCNC1` (mixture of isomers) [Example 42, N-[10,11-dichloro-4-oxo-3-(trifluoromethyl)-2,5,7-triazatricyclo-[6.4.0.0^2,6]dodeca-1(12),6,8,10-tetraen-3-yl]pyrrolidine-3-carboxamide], 2000 nM; in that of `CN(C)c1cccc(C(=O)NC2(C(F)(F)F)C(=O)Nc3nc4cc(Cl)c(Cl)cc4n32)n1` (stereo not drawn) [Example 65, N-[10,11-dichloro-4-oxo-3-(trifluoromethyl)-2,5,7-triazatricyclo[6.4.0.0^2,6]dodeca-1(12),6,8,10-tetraen-3-yl]-6-(dimethylamino)pyridine-2-carboxamide], 2200 nM. The value for `O=C(CCc1ccccc1)NC1(C(F)(F)F)C(=O)Nc2nc3cc(Cl)c(Cl)cc3n21` (stereo not drawn) [Example 37, N-[10,11-dichloro-4-oxo-3-(trifluoromethyl)-2,5,7-triazatricyclo[6.4.0.0^2,6]dodeca-1(8),6,9,11-tetraen-3-yl]-3-phenylpropanamide] was 800 nM; that for `Cc1cc2nc3n(c2cc1C)C(NC(=O)[C@H](C)OCC1CCCC1)(C(F)(F)F)C(=O)N3` (single isomer, unassigned) [Example 215a] was 1440 nM; that for `COc1cc2nc3n(c2cc1OC)C(NC(=O)CCC1CCCC1)(C(F)(F)F)C(=O)N3` (stereo not drawn) [Example 76, 3-cyclopentyl-N-[10,11-dimethoxy-4-oxo-3-(trifluoromethyl)-2,5,7-triazatricyclo-[6.4.0.0^2,6]dodeca-1(12),6,8,10-tetraen-3-yl]propanamide] was 11400 nM. In the case of `O=C(CCC1CCCC1)NC1(C(F)(F)F)C(=O)Nc2nc3c(C(=O)O)cccc3n21` (single isomer, unassigned) [Example 231a, 3-(3-cyclopentylpropanamido)-4-oxo-3-(trifluoromethyl)-2,5,7-triazatricyclo[6.4.0.0^2,6]dodeca-1(12),6,8,10-tetraene-9-carboxylic acid] it was 660 nM; in that of `CS(=O)(=O)NC(=O)c1cccc2c1nc1n2C(NC(=O)CCC2CCCC2)(C(F)(F)F)C(=O)N1` (stereo not drawn) [Example 166, 3-(3-cyclopentylpropanamido)-N-methanesulfonyl-4-oxo-3-(trifluoromethyl)-2,5,7-triazatricyclo[6.4.0.0^2,6]dodeca-1(12),6,8,10-tetraene-9-carboxamide], 400 nM; in that of `Cc1cc2c(nc3n2C(NC(=O)c2ccccc2)(C(F)(F)F)C(=O)N3)c(Br)c1C` (stereo not drawn) [Example 77, N-[9-bromo-10,11-dimethyl-4-oxo-3-(trifluoromethyl)-2,5,7-triazatricyclo[6.4.0.0^2,6]dodeca-1(8),6,9,11-tetraen-3-yl]benzamide], 4300 nM. Consider `O=C(CCC1CCCC1)NC1(C(F)(F)F)C(=O)Nc2nc3c(-c4ccccc4)cccc3n21` (stereo not drawn) [Example 195, 3-cyclopentyl-N-[4-oxo-9-phenyl-3-(trifluoromethyl)-2,5,7-triazatricyclo[6.4.0.0^2,6]dodeca-1(12),6,8,10-tetraen-3-yl]propanamide], for which the IC50 was found to be 1270 nM.

For the compound `O=C(CCC1CCCC1)NC1(C(F)(F)F)C(=O)Nc2nc3c(Br)cc(Cl)cc3n21` (stereo not drawn) [Example 181, N-[9-bromo-11-chloro-4-oxo-3-(trifluoromethyl)-2,5,7-triazatricyclo[6.4.0.0^2,6]dodeca-1(12),6,8,10-tetraen-3-yl]-3-cyclopentylpropanamide], the IC50 worked out at 1450 nM.

On to `O=C(CCC1CCCC1)NC1(C(F)(F)F)C(=O)Nc2nc3cc(Cl)c(Cl)cc3n21` (single isomer, unassigned) [Example 219a, 3-cyclopentyl-N-[10,11-dichloro-4-oxo-3-(trifluoromethyl)-2,5,7-triazatricyclo[6.4.0.0^2,6]dodeca-1(12),6,8,10-tetraen-3-yl]propanamide], for which the IC50 came out at 940 nM.
